What was measured:
[1] = target: T1, human PPARγ (Homo sapiens, UniProt P37231); experiment: Membrane-bound PPARγ binding assay ([3H]rosiglitazone competition, filtration); conditions: competition with [3H]rosiglitazone (4 nM), 180 min at 4 °C; read-out: Ki (nM), hPPARγ binding affinity
T1 sequence (P37231 235-505 limits assumed): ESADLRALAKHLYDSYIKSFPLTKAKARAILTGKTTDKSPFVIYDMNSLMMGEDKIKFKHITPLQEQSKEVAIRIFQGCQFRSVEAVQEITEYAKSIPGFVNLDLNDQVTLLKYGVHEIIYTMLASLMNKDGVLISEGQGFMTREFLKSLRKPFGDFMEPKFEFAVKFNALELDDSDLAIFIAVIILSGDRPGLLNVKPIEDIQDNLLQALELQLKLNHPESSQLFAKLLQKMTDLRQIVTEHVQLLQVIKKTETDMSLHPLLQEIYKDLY
Description: The membrane-associated PPARγ was used as the biological source as previously described. Binding buffer consisted of 10 mM Tris/HCl, pH 8.2, containing 50 mM KCl and 1 mM dithiothreitol. […] Radioactivity was measured in a TopCount apparatus (Packard).

[2] = target: T2, human PPARγ (Homo sapiens, UniProt P37231); experiment: Gene reporter (transactivation) assay, Cos-7 cells transfected with pGal4-hPPARγ; type: cell-based; conditions: Cos-7 cells, 24 h; for Emax: COS-7, 24 h, Emax relative to maximum activation with rosiglitazone (1 μM) = 100%, read-out: hPPAR gene reporter γGal4 (%); for EC50: GAL4 chimeric hPPARγ, read-out: hPPAR gene reporter γEC50;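 for all read-outs here: luciferase reporter (pG5-TK) activity normalised to cotransfected β-galactosidase, cells exposed to increasing compound concentrations in DMEM with 0.2% FCS, DMSO vehicle as control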
T2 construct: expressed in transfected cells; host or cells: Cos-7
T2 sequence (P37231 238-503 limits assumed): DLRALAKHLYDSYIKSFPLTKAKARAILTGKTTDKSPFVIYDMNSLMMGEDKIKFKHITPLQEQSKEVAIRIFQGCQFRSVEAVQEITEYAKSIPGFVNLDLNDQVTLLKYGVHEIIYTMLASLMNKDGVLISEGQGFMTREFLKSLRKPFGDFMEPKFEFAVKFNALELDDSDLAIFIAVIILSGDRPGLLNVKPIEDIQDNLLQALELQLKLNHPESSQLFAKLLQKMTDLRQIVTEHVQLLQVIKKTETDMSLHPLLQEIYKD
Description: (§1) Cos-7 cells were transiently transfected with luciferase reporter plasmid (pG5-TK-pGL3) in the presence of pGal4-hPPARα or pGal4-hPPARγ (these vectors express chimeric proteins containing the Gal4 DNA-binding domain fused to the human PPARα or PPARγ ligand binding domain coding sequence) expression vector. […] Cells were transfected in OptiMEM without FCS for 3 h at 37°, using polyethylenimine (PEI), with reporter and expression plasmids, as stated in figure’s legend. The plasmid pBluescript (Stratagene, La Jolla, CA) was used as carrier DNA to set the final amount of DNA to 5.5 µg/dish. The pCMV- ß-galactosidase expression plasmid was cotransfected as a control for transfection efficiency. […] After 16 h, cells were trypsinised and seeded in 96-well plates at the density of 2 × 10^4 cells/well and incubated for 6 h in 10% FCS containing DMEM. Cells were then incubated for 24 h in DMEM containing 0.2% FCS and increasing concentrations of the compound tested or vehicle (DMSO). At the end of the experiment, cells were washed once with ice-cold PBS and the luciferase and the β–galactosidase assays were performed as described previously[20]. Cells were incubated 24 h in the presence of indicated concentrations of compound. Luciferase activity was measured and normalised to internal control β-galactosidase activity. […] EC50 were estimated using Prism software (GraphPad). All transfection experiments were performed at least three times.

[3] = tested on: CaCO2 cells; experiment: CaCo2 cell absorption (membrane permeability model); type: in vitro ADME; conditions: percentage of absorption
Description: The in vivo effect of test compounds was determined by measuring glycaemia, triglyceridemia, insulinemia, and body weight using ob/ob mice (Table 3). The ob/ob mice were obese, insulin resistant with hypertriglyceridaemia and hyperglycaemia, and have been used as a rodent model of obesity-induced insulin resistance. […] As a side effect index, body weight was also measured daily, and body weight variation was calculated as a percentage of the difference in body weight between days 4 and 0. […] Benzoyl derivatives 32a, 41a and 42a were not evaluated in vivo with regard to their low absorption values with CaCO2 cells (< 25%), an in vitro model predicting membrane permeability. […] Indeed, incorporation of substituents such as methyl oxime ether and trifluoroethoxy group are benefiting for PPAR activity regulation and so for effective management of dyslipidemia without inducing body weight gain. […] The CF3 group incorporation, beyond keeping a good in vivo efficacy, provided a robust reduction of body weight induced with compound 44a, strengthening the beneficial pharmacological effect of C-H bond replacement with fluorine. Compound 44 b may be considered as a SPPARγM since this full PPARγ agonist retains the insulin-sensitizing and glucose-lowering actions while mitigating or eliminating the undesirable side effects.

[4] = target: T3, human PPARα (Homo sapiens, UniProt Q07869); experiment: Gene reporter (transactivation) assay, Cos-7 cells transfected with pGal4-hPPARα; type: cell-based; conditions: for Emax: COS-7, 24 h, Emax relative to maximum activation with WY14643 (10 µM) = 100%, read-out: hPPAR gene reporter αGal4 (%); for EC50: GAL4 chimeric hPPARα, 24 h, read-out: hPPAR gene reporter αEC50;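 for all read-outs here: luciferase signal from a Gal4-driven reporter normalised to cotransfected β-galactosidase activity, cells exposed to rising compound concentrations with DMSO vehicle as control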
T3 construct: expressed in transfected cells; host or cells: Cos-7
T3 sequence (Q07869 239-466 limits assumed): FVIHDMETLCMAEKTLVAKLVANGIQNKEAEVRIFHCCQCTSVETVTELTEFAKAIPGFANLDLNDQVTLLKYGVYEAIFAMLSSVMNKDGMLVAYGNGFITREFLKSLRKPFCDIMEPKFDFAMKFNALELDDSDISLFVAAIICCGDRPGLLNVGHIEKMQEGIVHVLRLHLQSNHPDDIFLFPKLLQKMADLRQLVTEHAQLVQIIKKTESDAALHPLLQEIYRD
Description: as §1

[5] = tested on: ob/ob mice; experiment: In vivo ob/ob mice: glycaemia, triglyceridemia, insulinemia, body weight; conditions: oral, 4 days; for ΔBW (body weight variation between day 0 and day 4): expressed in % of rosiglitazone in the same study (= 100%), ob/ob mice; for ΔBW (body weight variation between day 0 and day 4) / Change (%) Gly (glycemia) / Change (%) Ins (insulin) / Change (%) TG (triglycerides): synthesised compounds 8.4 µMkg^−1, references 3 mgkg^−1; for Change (%) Gly (glycemia) / Change (%) Ins (insulin) / Change (%) TG (triglycerides): percent change versus control, ob/ob mice at day 4;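 for all read-outs here: male ob/ob mice aged 10–12 weeks, given the compound once daily by oral gavage as a 1% hydroxyethylcellulose suspension, 8–12 animals per group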
Description: The glucose- and triglyceride-lowering activities of the compounds prepared were then tested using 10–12-week-old male ob/ob mice. […] Mice had access to filtered (0.22 mm) tap water ad libitum and irradiated pelleted laboratory chow (transbreed, Special Diet Services, England) throughout the study. Compounds were prepared as a suspension in 1% hydroxyethylcellulose (HEC) for oral administration (10 mLkg^−1). The mice (n = 8–12 per group) were dosed by gavage daily between 15:00 and 17:00 for 4 days. Randomisation was performed based on glycaemia values. The body weight gain (DBW in grams) of the animals was determined by measuring the difference between body weight at the beginning and end of the study for each mouse. At day 5 between 9:00 and 11:00 the mice were weighed, and blood samples were collected into heparin-containing tubes by retro-orbital puncture (500 mL per mouse). […] Plasma samples were prepared by centrifugation (2000 g for 10 min), and stored at −20 °C. For triglycerides and insulin determination, the percent change in plasma level in the treated group was calculated relative to the mean plasma level in the vehicle-treated group. ANOVA, followed by Dunnett’s comparison test (one-tailed) was used to estimate significant differences between the plasma glycaemia, triglycerides, insulin, and DBW values between the control group and the individual compound-treated groups.

SMILES: CCOC(Cc1ccc(OCCn2c(=O)sc3cc(C(=O)c4ccccc4)ccc32)cc1)C(=O)O (stereo not drawn) [Compound 32a, 3-{4-[2–(6-benzoyl-2-oxo-benzothiazol-3-yl)-ethoxy]-phenyl}-2-ethoxypropionic acid]
- Ki [1]: 4 nM
- Emax [2]: ≥ 80%
- EC50 [2]: 15 nM
- absorption with CaCO2 cells (CaCo2 permeability) [3]: < 25%
- Emax [4]: ≥ 80%
- EC50 [4]: 2400 nM
- melting point: 57 to 59 °C

SMILES: CCO[C@H](Cc1ccc(OCCn2c(=O)sc3cc(C(=O)c4ccccc4)ccc32)cc1)C(=O)O [Compound 42a, (R)-3-{4-[2–(6-benzoyl-2-oxo-benzothiazol-3-yl)-ethoxy]-phenyl}-2-ethoxypropionic acid]
- Ki [1]: 70 nM
- Emax [2]: 39%
- EC50 [2]: 300 nM
- absorption with CaCO2 cells (CaCo2 permeability) [3]: < 25%
- Emax [4]: 0%
- melting point: 57 to 59 °C

SMILES: CCOC(Cc1ccc(OCCn2c(=O)sc3cc(/C(=N/OC)c4ccccc4)ccc32)cc1)C(=O)O (stereo not drawn) [Compound 40a, 3-{4-[2–(6-[(E)-methoxyimino-phenyl-methyl]-2-oxo-benzothiazol-3-yl)-ethoxy]-phenyl}-2-ethoxypropionic acid]
- Ki [1]: 4 nM
- Emax [2]: 87%
- EC50 [2]: 2 nM
- Emax [4]: 159%
- EC50 [4]: 129 nM
- melting point: 151 to 152 °C
- ΔBW (body weight variation between day 0 and day 4) [5]: 188%
- Change (%) Gly (glycemia) [5]: −58%
- Change (%) Ins (insulin) [5]: −76%
- Change (%) TG (triglycerides) [5]: −83%

SMILES: CCO[C@H](Cc1ccc(OCCn2c(=O)sc3cc(/C(=N/O)c4ccccc4)ccc32)cc1)C(=O)O [Compound 45a, (R)-3-{4-[2–(6-[(E)-hydroxyimino-phenyl-methyl]-2-oxo-benzothiazol-3-yl)-ethoxy]-phenyl}-2-ethoxypropionic acid]
- Ki [1]: 210 nM
- Emax [2]: 66%
- EC50 [2]: 799 nM
- absorption with CaCO2 cells (CaCo2 permeability) [3]: 31%
- Emax [4]: 30%
- melting point: 84 to 85 °C
- ΔBW (body weight variation between day 0 and day 4) [5]: 328%
- in vivo activity in ob/ob mice [5]: inactive
- Change (%) Gly (glycemia) [5]: −7%
- Change (%) Ins (insulin) [5]: 51%
- Change (%) TG (triglycerides) [5]: 21%

SMILES: CCO[C@@H](Cc1ccc(OCCn2c(=O)sc3cc(/C(=N/OC)c4ccccc4)ccc32)cc1)C(=O)O [Compound 44a, (S)-3-{4-[2–(6-[(E)-methoxyimino-phenyl-methyl]-2-oxo-benzothiazol-3-yl)-ethoxy]-phenyl}-2-ethoxypropionic acid]
- Ki [1]: 0.7 nM
- Emax [2]: 115%
- EC50 [2]: 2 nM
- Emax [4]: 154%
- EC50 [4]: 32 nM
- melting point: 151 to 152 °C
- ΔBW (body weight variation between day 0 and day 4) [5]: 177%
- Change (%) Gly (glycemia) [5]: −46%
- Change (%) Ins (insulin) [5]: −81%
- Change (%) TG (triglycerides) [5]: −79%

SMILES: O=C(O)C(Cc1ccc(OCCn2c(=O)sc3cc(C(=NO)c4ccccc4)ccc32)cc1)OCC(F)(F)F (mixture of isomers) [Compound 39b, 3-{4-[2–(6-[(Z/E)-hydroxyimino-phenyl-methyl]-2-oxo-benzothiazol-3-yl)-ethoxy]-phenyl}-2–(2,2,2-trifluoro)ethoxypropionic acid]
- Ki [1]: 165 nM
- Emax [2]: 44%
- EC50 [2]: 10 nM
- Emax [4]: 29%
- melting point: 55 to 56 °C
- ΔBW (body weight variation between day 0 and day 4) [5]: 75%
- Change (%) Gly (glycemia) [5]: −18%
- Change (%) Ins (insulin) [5]: 10%
- Change (%) TG (triglycerides) [5]: −30%

SMILES: CCO[C@@H](Cc1ccc(OCCn2c(=O)sc3cc(C(=O)c4ccccc4)ccc32)cc1)C(=O)O [Compound 41a, (S)-3-{4-[2–(6-benzoyl-2-oxo-benzothiazol-3-yl)-ethoxy]-phenyl}-2-ethoxypropionic acid]
- Ki [1]: 0.5 nM
- Emax [2]: 142%
- EC50 [2]: 8 nM
- absorption with CaCO2 cells (CaCo2 permeability) [3]: < 25%
- Emax [4]: 166%
- EC50 [4]: 522 nM
- melting point: 57 to 59 °C
